Patent EP1145713A1, “TELOMERASE INHIBITORS” (KYOWA HAKKO KOGYO CO., LTD., priority 1999, dated 2000)

How the values were obtained:
[1] = test system: human leukemia cell line CCRF-CEM; assay: Telomerase inhibitory activity in cell system (Test Example 3, TRAP assay of cell extract); format: cell-based
Description: After a test compound was allowed to contact with human leukemia cell line CCRF-CEM for 7 days, a cell extraction solution was prepared and the enzyme activity was measured by a known method (U.S. Patent 5,629,154). That is, the cell extraction solution was prepared using a buffer solution containing 0.5% CHAPS {3-[(3-cholamidopropyl)dimethylammonio]-1-propanesulfonate}. using the extraction solution, TRAP (Telomeric Repeat Amplification Protocol) assay was carried out (TRAPEZE™ ELISA Telomerase Detection Kit, manufactured by Oncor Co.) Inhibitory ratio was calculated based on the ratio of the enzyme activity in the extraction solution from the cells treated with the test compound relative to the enzyme activity in the extraction solution from the test compound-untreated cells.

[2] = test system: human leukemia cell line CCRF-CEM; assay: Induction of the reduction of telomere in cell system (Test Example 4); format: cell-based
Description: After a test compound was. allowed to contact with human leukemia cell line CCRF-CEM for 21 days, a chromosomal DNA was extracted and the telomere length was measured by a known method (Biotechniques, 23: 476-484 (1997)). That is, the extracted chromosomal DNA was adsorbed on a membrane, and hybridization was carried out by using a labeled oligonucleotide probe having a sequence complementary to the telomere sequence. The signal of the label on the membrane proportional to the telomere DNA length was detected and digitalized.

[3] = contact for 7 days, 2, 4.4 µmol/L
[4] = contact for 21 days, 2, 4.4 µmol/L
[5] = contact for 7 days, 8.9, 13 µmol/L
[6] = contact for 21 days, 13, 30 µmol/L

Row | SMILES | cytotoxicity [1, 3] | inhibition of intracellular telomerase [1, 3] | cytotoxicity ([1]; contact for 7 days, concentrations higher than 4.4 µmol/L) | cytotoxicity [2, 4] | telomere reduction [2, 4] | cytotoxicity ([2]; contact for 21 days, concentrations higher than 4.4 µmol/L) | cytotoxicity [1, 5] | inhibition of intracellular telomerase [1, 5] | cytotoxicity [2, 6] | telomere reduction [2, 6]
1 | C[n+]1ccc(-c2c3nc(c(-c4cc[n+](C)cc4)c4ccc([nH]4)c(-c4cc[n+](C)cc4)c4nc(c(-c5cc[n+](C)cc5)c5ccc2[nH]5)C=C4)C=C3)cc1 [TMPyP4] | no remarkable cytotoxicity was shown | did not inhibit telomerase | no cellular protein was recovered at higher concentrations because of the cytotoxicity | no remarkable cytotoxicity was shown | did not induce telomere reduction | no chromosomal DNA was recovered at higher concentrations because of the cytotoxicity | – | – | – | –
2 | CC1=C(CCC(=O)O)c2cc3[nH]c(cc4nc(cc5[nH]c(cc1n2)c(CCC(=O)O)c5C)C(C)=C4CCC(=O)O)c(CCC(=O)O)c3C [Compound 1] | – | – | – | – | – | – | no remarkable cytotoxicity was shown | inhibited intracellular telomerase | no remarkable cytotoxicity was shown | induced telomere reduction
